Experimental data: PubChem BioAssay (NCI)
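A five-concentration, 48-hour dose response in 96-well plates underlies each endpoint, interpolated linearly between surrounding concentrations. At the GI50, growth is halved. TGI: total growth inhibition.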

What was measured:
Experiment in all cases: NCI anticancer screen, dose series, 48 h
SK-MEL-2 melanoma = test system: SK-MEL-2 melanoma
LOX IMVI melanoma = test system: LOX IMVI melanoma
ACHN renal = test system: ACHN renal
NCI-H522 lung = test system: NCI-H522 lung
OVCAR-3 ovarian = test system: OVCAR-3 ovarian
T-47D breast = test system: T-47D breast
RPMI-8226 leukemia = test system: RPMI-8226 leukemia
TK-10 renal = test system: TK-10 renal
SF-295 CNS = test system: SF-295 CNS
SK-OV-3 ovarian = test system: SK-OV-3 ovarian

SMILES	TGI (SK-MEL-2 melanoma)	TGI (LOX IMVI melanoma)	TGI (ACHN renal)	TGI (NCI-H522 lung)	TGI (OVCAR-3 ovarian)	TGI (T-47D breast)	TGI (RPMI-8226 leukemia)	TGI (TK-10 renal)	TGI (SF-295 CNS)	TGI (SK-OV-3 ovarian)	GI50 (LOX IMVI melanoma)	GI50 (ACHN renal)	GI50 (NCI-H522 lung)	GI50 (OVCAR-3 ovarian)	GI50 (T-47D breast)	GI50 (SK-OV-3 ovarian)	GI50 (RPMI-8226 leukemia)	GI50 (SK-MEL-2 melanoma)	GI50 (TK-10 renal)	GI50 (SF-295 CNS)
O=[N+]([O-])c1ccc(N=Nc2c(O)ccc3cc(S(=O)(=O)O)ccc23)cc1	> 100 µM	> 100 µM	> 100000 nM	> 100 µM	> 100 µM	> 100 µM	> 100 µM	> 100 µM	> 100 µM	> 100 µM										
O=C(CCCn1c(=O)c2sc3ccccc3c2n2nnc(-c3ccccc3)c12)NCCc1cnc[nH]1		2.93 µM	3020 nM	11.7 µM	3.18 µM	4.49 µM				15.7 µM	1590 nM	1660 nM	1060 nM	1520 nM	1400 nM	3440 nM				
CO[C@H]1[C@@H](O)[C@@H](C)O[C@@H](O[C@H]2CC[C@@]3(C)[C@H](CC[C@@H]4[C@@H]3CC[C@]3(C)[C@@H](C5=CC(=O)OC5)CC[C@]43O)C2)[C@@H]1O	0.0538 µM	0.0455 µM	10.2 nM	0.0194 µM	0.013 µM	0.222 µM	25 µM	0.0201 µM	0.157 µM	0.0491 µM							7.81 nM			
COc1cc(-c2n/c(=C\c3c(O)[nH]c4ccc(Cl)cc34)cc3c2=Nc2ccccc2-3)cc(OC)c1OC	4.9 µM	1.89 µM	1650 nM	4.09 µM	1.53 µM	3.21 µM	19.7 µM	3.2 µM	10.2 µM	4.79 µM	501 nM	449 nM	1790 nM	417 nM	1280 nM	2160 nM	2680 nM	2210 nM	1500 nM	3310 nM
[N-]=[N+]=Nc1ccc(NCCCCCC(=O)ON2C(=O)CCC2=O)c([N+](=O)[O-])c1	> 100 µM	> 100 µM	> 100000 nM	> 100 µM	> 100 µM	> 100 µM		> 100 µM	> 100 µM	> 100 µM										
O=c1[nH][nH]c(=O)[nH]1	> 100 µM	> 100 µM		> 100 µM	> 100 µM		> 100 µM	> 100 µM	> 100 µM	> 100 µM										
Cc1nc2ccccc2c(=O)n1-c1n[nH]c2ccccc12	> 100 µM	> 100 µM	> 100000 nM	> 100 µM	> 100 µM	> 100 µM	> 100 µM	> 100 µM	> 100 µM											
O=S1(=O)NNC(=NCc2ccc(Cl)c(Cl)c2)c2ccccc21	> 100 µM	> 100 µM	> 100000 nM		> 100 µM		61 µM		> 100 µM											
CN1CCN(c2ccc(-c3ccc4ncc(C#N)c(Nc5ccc(F)c(Cl)c5)c4c3)cc2)CC1	6.72 µM	11.5 µM	2720 nM	4.02 µM	6.25 µM	7.15 µM	5.5 µM	18.8 µM	3.61 µM	15.1 µM	2780 nM	491 nM	1150 nM	1720 nM	1930 nM	2900 nM	1920 nM	2300 nM	484 nM	1820 nM
